Reference: patent publication US20190054064A1, “VITAMIN C AND VITAMIN K COMPOUND FOR TREATING PANCREATIC CANCER” (IC-MedTech Corp., priority 2014, published 2019)
Starred links: 1 amine or outer side, 2 acyl side, 3 side chain; linkers in the order of their positions; H or OH if unused. Positions of bridges follow the written chain, without caps; N, C: chain ends. Non-standard residues stand in square brackets, D forms with d. Residues, ends and D or L forms follow the SMILES beside them. Chains are numbered I, II in the order given. Actinocin(9to1) = Cc1c2oc3c(C)ccc(C(=O)[*:1])c3nc-2c(C(=O)[*:2])c(N)c1=O; NMeV = CN[C@H](C(=O)O)C(C)C; Sar = CNCC(=O)O

Key:
AsPC-1 = experiment: Soft agar growth assay (Alamar Blue), Example 2, AsPC-1; type: cell-based, human; settings: AsPC-1, soft agar, 10 days
Procedure: (§1) A stock solutions (1,000×) of menadione (VK3) were prepared in DMSO and a stock solution of calcium L-ascorbate dihydrate (VC) (1,000×) was prepared in water. All stock solutions were prediluted 1:62.5 first in medium and finally diluted to the final assay concentrations. Actinomycin D was used as a reference.
(§2) Suspension cell culture plates (96-well) were prepared. The soft agar bottom layer (100 μL, 0.6% final concentration in complete medium) was poured and left to solidify. The soft agar top layer (50 μL, 0.4% final concentration) containing the corresponding cells and cell number were then added on top, solidified, and incubated overnight at 37° C., 10% CO2. Next day, the test compounds, DMSO, or actinomycin D were added at predetermined final concentrations. […] Finally, the assay was developed using Alamar Blue and upon 0.5-5 hrs of incubation at 37° C. and fluorescence intensity was determined (excitation: 560 nm; emission: 590 nm). […]
(§3) Raw data were converted into percent soft agar growth relative to high controls (solvent 0.2% DMSO) and low controls (10^−5M staurosporine), which were set to 100% and 0%, respectively. IC50 values were calculated using standard parameters based on the signal of the solvent control as top constraint (100% soft agar growth) and the signal of the Staurosporine control as bottom constraint (0% soft agar growth).

Mia PaCa-2 = experiment: Soft agar growth assay (Alamar Blue), Example 2, Mia PaCa-2; type: cell-based, human; settings: Mia PaCa-2, soft agar, 8 days
Procedure: as §1, §2, §3

[1] = test system: human pancreatic cancerous cell line MIA PaCa-2; experiment: Soft agar growth assay (Alamar Blue), Example 1; type: cell-based; settings: 240 h, MIA PaCa-2, soft agar, 10 days
Procedure: The effects of vitamins C and K3, alone or in combination, on pancreatic cancer were studied using human pancreatic cancerous cell line MIA PaCa-2. The pancreatic cancerous cells were cultured in DMEM containing 10% FCS and penicillin/streptomycin.
Vitamins C and K3 stock solutions in DMSO were prepared at a concentration of 2 M and 20 mM, respectively. Actinomycin D was used as a reference.
Prior to addition to the pancreatic cancerous cells, stock solutions of the test compounds (vitamins C and K3, and actinomycin D) were diluted in culture medium and 10 μL were added on top of 150 μL of solidified soft agar to diffuse into the soft agar in a 96-well plate. For each well in the 96-well plate, 100 μL of the soft agar bottom layer (0.6% final concentration in complete medium) was poured and left to solidify, and 50 μL of the soft agar top layer (0.4% final concentration) containing the pancreatic cancerous cells (about 5,000 cells/well) were then added on top, solidified. The 96-well plate was incubated overnight at 37° C., 10% CO2. The next day, the test compounds were added at the prescribed final concentrations into the inner wells of the plate. Subsequently, the assays were incubated in cell culture incubators for 10 days. […] Fluorescence intensity was then determined (excitation: 560 nm; emission: 590 nm). […]

Structure (SMILES) | IC50 (AsPC-1) [nM] | IC50 (Mia PaCa-2) [nM] | viability at 0.6 µM ([1]; 0.6 μM Vitamin K3 alone) [%] | viability at 6 µM ([1]; 6 μM Vitamin K3 alone) [%]
Cc1c2oc3c(C)ccc(C(=O)N[C@@H]4C(=O)N[C@H](C(C)C)C(=O)N5CCC[C@H]5C(=O)N(C)CC(=O)N(C)[C@@H](C(C)C)C(=O)O[C@@H]4C)c3nc-2c(C(=O)N[C@@H]2C(=O)N[C@H](C(C)C)C(=O)N3CCC[C@H]3C(=O)N(C)CC(=O)N(C)[C@@H](C(C)C)C(=O)O[C@@H]2C)c(N)c1=O [Actinomycin D] (I: T[dV]P[Sar][NMeV] / II: T[dV]P[Sar][NMeV]; ester I:1-I:C, II:1-II:C; linker I:N-II:N via Actinocin(9to1)) | 2.7 | 0.4 |  | 
CC1=CC(=O)c2ccccc2C1=O [Vitamin K3, 2-methyl-1,4-naphthoquinone] |  |  | 103.2 ± 0.9 | 90.2 ± 12.5
